Experimental data published in patent US9120804B2, “8-substituted 2-amino-[1,2,4] triazolo [1, 5-A] pyrazines as Syk tryrosine kinase inhibitors and GCN2 serin kinase inhibitors” (Merck Patent GmbH, priority 2012, dated 2015).

Tests used:
SYK = target: T1, SYK (Homo sapiens, UniProt P43405); test: SYK flash plate assay (enzyme assay); assay type: biochemical
T1 construct: 2.5 nM SYK, 400 nM Biotin-Aha-Aha-KEDPDYEWPSAKK
Outline: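 Radiometric Flashplate format: biotinylated peptide substrate (400 nM) and 33P-labelled ATP (10 μM) react with 2.5 nM enzyme for 1 hour at 30 °C in Hepes buffer, pH 7.5. After EDTA quench and washing, counts are taken; staurosporine defines non-specific signal, and IC50 values are derived.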

GCN2 = GCN2 (Homo sapiens, UniProt Q9P2K8); test: GCN2 enzyme assay; assay type: biochemical
GCN2, sequence (Q9P2K8 whole entry): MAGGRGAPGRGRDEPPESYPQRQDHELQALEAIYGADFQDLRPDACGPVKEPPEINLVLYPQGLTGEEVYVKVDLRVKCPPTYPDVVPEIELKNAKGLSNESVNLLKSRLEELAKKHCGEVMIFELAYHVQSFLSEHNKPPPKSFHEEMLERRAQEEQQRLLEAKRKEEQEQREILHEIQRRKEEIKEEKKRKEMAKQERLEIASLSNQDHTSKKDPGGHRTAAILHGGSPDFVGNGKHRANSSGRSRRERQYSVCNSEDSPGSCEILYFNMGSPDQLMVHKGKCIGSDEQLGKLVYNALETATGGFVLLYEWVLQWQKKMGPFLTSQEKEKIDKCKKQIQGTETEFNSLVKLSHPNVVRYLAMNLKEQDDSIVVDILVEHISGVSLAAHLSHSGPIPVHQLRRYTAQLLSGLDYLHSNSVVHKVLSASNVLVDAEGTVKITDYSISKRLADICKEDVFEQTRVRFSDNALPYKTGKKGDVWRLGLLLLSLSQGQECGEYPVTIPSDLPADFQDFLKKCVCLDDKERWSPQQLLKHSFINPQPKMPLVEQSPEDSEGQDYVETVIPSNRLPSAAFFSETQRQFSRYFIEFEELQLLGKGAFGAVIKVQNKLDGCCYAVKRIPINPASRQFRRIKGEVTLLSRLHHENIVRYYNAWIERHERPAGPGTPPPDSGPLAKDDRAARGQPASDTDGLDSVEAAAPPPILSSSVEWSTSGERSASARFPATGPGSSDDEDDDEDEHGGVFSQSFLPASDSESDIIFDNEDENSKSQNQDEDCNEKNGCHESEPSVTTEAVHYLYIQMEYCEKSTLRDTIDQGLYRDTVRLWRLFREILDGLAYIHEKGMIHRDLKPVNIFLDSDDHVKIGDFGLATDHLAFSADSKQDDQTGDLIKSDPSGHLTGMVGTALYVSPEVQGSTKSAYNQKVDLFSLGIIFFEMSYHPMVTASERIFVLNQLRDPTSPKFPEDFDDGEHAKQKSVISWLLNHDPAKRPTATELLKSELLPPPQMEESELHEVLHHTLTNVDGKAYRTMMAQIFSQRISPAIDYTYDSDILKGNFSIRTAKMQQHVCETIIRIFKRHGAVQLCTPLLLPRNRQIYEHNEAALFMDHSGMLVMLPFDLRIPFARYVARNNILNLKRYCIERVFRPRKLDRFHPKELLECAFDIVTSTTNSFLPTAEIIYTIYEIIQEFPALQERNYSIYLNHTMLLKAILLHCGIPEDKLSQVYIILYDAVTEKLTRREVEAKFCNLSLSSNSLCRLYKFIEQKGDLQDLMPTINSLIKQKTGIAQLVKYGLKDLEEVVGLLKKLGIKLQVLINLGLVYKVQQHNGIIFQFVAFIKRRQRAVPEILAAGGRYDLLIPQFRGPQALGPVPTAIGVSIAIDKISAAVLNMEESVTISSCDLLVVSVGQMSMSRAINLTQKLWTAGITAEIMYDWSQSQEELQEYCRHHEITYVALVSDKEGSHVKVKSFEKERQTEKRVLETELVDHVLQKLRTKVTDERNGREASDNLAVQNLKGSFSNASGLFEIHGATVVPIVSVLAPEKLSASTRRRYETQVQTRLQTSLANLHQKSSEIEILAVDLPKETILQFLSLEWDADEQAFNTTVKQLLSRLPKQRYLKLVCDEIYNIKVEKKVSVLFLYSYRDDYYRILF

SMILES | IC50 (SYK) [nM] | IC50 (GCN2) [nM]
Cn1cc(-c2nccn3nc(Nc4ccc5c(C(=O)C(F)(F)F)c[nH]c5c4)nc23)cn1 [C112, 2,2,2-trifluoro-1-{6-[8-(1-methyl-1H-pyrazol-4-yl)-[1,2,4]triazolo[1,5-a]pyrazin-2-ylamino]-1H-indol-3-yl}-ethanone] | 300 to 3000 | 3000 to 50000
Cn1cc(-c2nccn3nc(Nc4ccc5c(C(C)(O)C(F)(F)F)c[nH]c5c4)nc23)cn1 (stereo not shown) [C113, 1,1,1-trifluoro-2-{6-[8-(1-methyl-1H-pyrazol-4-yl)-[1,2,4]triazolo[1,5-a]pyrazin-2-ylamino]-1H-indol-3-yl}-propan-2-ol] | < 100 | 300 to 3000
Cn1cc(-c2nccn3nc(Nc4ccc5c(c4)CS(=O)(=O)N5)nc23)cn1 [C115, (2,2-dioxo-2,3-dihydro-1H-2I6-benzo[c]isothiazol-5-yl)-[8-(1-methyl-1H-pyrazol-4-yl)-[1,2,4]triazolo[1,5-a]pyrazin-2-yl]-amine] | 100 to 300 | 3000 to 50000
CN1c2ccc(Nc3nc4c(-c5cnn(C)c5)nccn4n3)cc2CS1(=O)=O [C117, (1-methyl-2,2-dioxo-2,3-dihydro-1H-2I6-benzo[c]isothiazol-5-yl)-[8-(1-methyl-1H-pyrazol-4-yl)-[1,2,4]triazolo[1,5-a]pyrazin-2-yl]-amine] | 100 to 300 | 300 to 3000
CC1(C)OC(=O)Nc2cc(Nc3nc4c(N5CCC6(C5)NC(=O)NC6=O)nccn4n3)ccc21 (stereo not shown) [C118, 7-[2-(4,4-dimethyl-2-oxo-1,4-dihydro-2H-benzo[d][1,3]oxazin-7-ylamino)-[1,2,4]triazolo[1,5-a]pyrazin-8-yl]-1,3,7-triaza-spiro[4.4]nonane-2,4-dione] | < 100 | 3000 to 50000
CC1(C)OC(=O)Nc2cc(Nc3nc4c(-c5cccc6[nH]ncc56)nccn4n3)ccc21 [C120, 7-[8-(1H-indazol-4-yl)-[1,2,4]triazolo[1,5-a]pyrazin-2-ylamino]-4,4-dimethyl-1,4-dihydro-benzo[d][1,3]oxazin-2-one] | < 100 | 300 to 3000

Further lines, results first:

IC50 (SYK) [nM] | IC50 (GCN2) [nM] | SMILES
< 100 | 300 to 3000 | Cn1cc(-c2nccn3nc(Nc4ccc5c(c4)NC(=O)OC5(C)C)nc23)cn1 [C114, 4,4-dimethyl-7-[8-(1-methyl-1H-pyrazol-4-yl)-[1,2,4]triazolo[1,5-a]pyrazin-2-ylamino]-1,4-dihydro-benzo[d][1,3]oxazin-2-one]
100 to 300 | 3000 to 50000 | CC(C)C1(C(C)C)OC(=O)Nc2cc(Nc3nc4c(-c5cnn(C)c5)nccn4n3)ccc21 [C119, 4,4-diisopropyl-7-[8-(1-methyl-1H-pyrazol-4-yl)-[1,2,4]triazolo[1,5-a]pyrazin-2-ylamino]-1,4-dihydro-benzo[d][1,3]oxazin-2-one]
< 100 | 300 to 3000 | CC(C)C(O)(c1n[nH]c2cc(Nc3nc4c(-c5cnn(C)c5)nccn4n3)ccc12)C(C)C [C141, 2,4-dimethyl-3-{6-[8-(1-methyl-1H-pyrazol-4-yl)-[1,2,4]triazolo[1,5-a]pyrazin-2-ylamino]-1H-indazol-3-yl}-pentan-3-ol]
100 to 300 | 300 to 3000 | CC(C)C(O)c1n[nH]c2cc(Nc3nc4c(-c5cnn(C)c5)nccn4n3)ccc12 (stereo not shown) [C142, 2-methyl-1-{6-[8-(1-methyl-1H-pyrazol-4-yl)-[1,2,4]triazolo[1,5-a]pyrazin-2-ylamino]-1H-indazol-3-yl}-propan-1-ol]
< 100 | 300 to 3000 | Cn1cc(-c2nccn3nc(Nc4ccc5c(c4)NC(=O)CC5(C)C)nc23)cn1 [C144, 4,4-dimethyl-7-[8-(1-methyl-1H-pyrazol-4-yl)-[1,2,4]triazolo[1,5-a]pyrazin-2-ylamino]-3,4-dihydro-1H-quinolin-2-one]
